{"source": "patent US20150259313A1", "about": "“Antitumor Agent” (priority 2014, published 2015)", "key": {"[1]": {"system": "hedgehog signaling pathway", "assay": "Gli luciferase reporter assay in Gli Reporter-NIH3T3 cells stimulated with mShh", "format": "cell-based", "conditions": "mShh 1 μg/ml, 27 hours, read-out: IC50 for inhibition of the hedgehog signaling pathway", "description": "In vitro test: Experimental method to measure the inhibition of jervine on the hedgehog signaling pathway\nHedgehog signaling pathway Gli Reporter-NIH3T3 cells were cultured in DMEM medium with 10% Calf serum, 1% Penn-strep, 500 μg/ml of Geneticin.\nTo perform the Gli luciferase reporter assay, Gli Reporter-NIH3T3 cells were seeded at 25,000 cells per well into white clear-bottom 96-well microplate in 100 μl of growth medium. Cells were incubated at 37° C. and 5% CO2 for overnight. Next day remove the medium from wells and add 45 μl of diluted inhibitor in assay medium (Opti-MEM Reduced Serum Medium+0.5% calf serum+1% non-essential amino acids+1 mM Na-pyruvate+10 mM HEPES+1% Pen/Strep) per well. Incubate cells at 37° C. in a CO2 incubator for 2 hours. Then add 5 μl of diluted mShh in assay medium to wells (final [mShh]=1 μg/ml). Add […] of assay medium to cell-free control wells. Cells were treated for 27 hours. […] Luminescence was measured using a luminometer(BioTek Synergy™ 2 microplate reader) 2.3 Data Analysis\nReporter assays in triplicate were performed at each concentration. The luminescence intensity data were analyzed using the computer software, Graphpad Prism. In the absence of the compound, the luminescence intensity (Lt) in each data set was defined as 100%. In the absence of cells, the luminescence intensity (Lb) in each data set was defined as 0%. […]"}, "[2]": {"system": "NCI-H2122 lung cancer xenograft", "format": "in vivo, BALB/c nude mice", "method": "(§1) NCI-H2122 cells were cultured in RMPI1640 medium, A431 tumor cells were cultured in DMEM medium, all the medium were supplemented with 10% heat inactivated fetal bovine serum, all cells used EDTA containing trypsin, passaged twice a week, incubated at 37° C. in an atmosphere of 5% CO2 in air and cultured.\n(§2) 110 BALB/c nude mice, female, 6-8 weeks old, 18-22 g in body weight, were purchased from Shanghai Laboratory Animal Center (SLAC, Shanghai, China). The mice were kept in individually ventilated cage (NC) systems at constant temperature and humidity, with 20.5-24.5° C. for temperature, 40-75% for humidity. With 4 animals in each cage, the size ogf the cage is 325 mm×210 mm×180 mm. The bedding material is corn cob, which is changed twice per week. Animals had free access to irradiation sterilized dry granule food and water during the entire study period. The food and water were changed twice per week. The identification labels for each cage contain the following information: number of animals, sex, strain, and date received treatment, study number, group number, and the starting date of the treatment. Animals were marked by ear coding. The experiments started one week after receiving the animals.\nEach mouse were inoculated subcutaneously at the right flank region with NCI-H2122 tumor cells (5×10^7/ml), NCI-H1703 tumor cells (1×10^8/ml) and A431 tumor cells (5×10^7/ml), respectively in a mixture of phosphate-buffered saline and matrigel for tumor development via a 1 ml syringe. The treatments were started when the mean tumor size reached about 200 (150-250) mm^3. […]\n8.1 Tumor size was measured twice weekly in two dimensions using a caliper, and the volume was expressed in mm^3 using the formula: V=0.5 a×b^2 where a and b are the long and short diameters of the tumor, respectively. […]\n(§3) A one-way analysis of variance was performed followed by multiple comparison procedures. All data was analyzed using SPSS 18.0.*p <0.05 or **P<0.01 are generally considered statistically significant when compared with vehicle group."}, "[3]": {"system": "A431 basal cell carcinoma xenograft", "assay": "A431 basal cell carcinoma xenograft tumor model, inoculated subcutaneously", "format": "in vivo, BALB/c nude mice", "conditions": "40-80 mg/kg p.o. QD × 21 days", "method": "as §1, §2\n(§4) Each mouse were inoculated subcutaneously at the right flank region with NCI-H2122 tumor cells (5×10^7/ml), NCI-H1703 tumor cells (1×10^8/ml) and A431 tumor cells (5×10^7/ml), respectively in a mixture of phosphate-buffered saline and matrigel for tumor development via a 1 ml syringe. The treatments were started when the mean tumor size reached about 200 (150-250) mm^3.\n(§5) After tumor volume reached 3000 mm^3 or average tumor volume reached 2000 mm^3, before experimental animals emaciated or coma, anesthesia and euthanasia will be performed. During the experiment, if the weight loss of experimental animal reaches 20%, administration will be discontinued and experimental animals will be observed until the weight returned to 10% range before restart of the administration. In this experiment, when the mean tumor volume reached 2000 mm^3 or at the end of 59 days after the administration, experimental animals will be anesthesiaed to collect tumor mass which will be weighed and photographed.\n(§6) 8.1 Tumor size was measured twice weekly in two dimensions using a caliper, and the volume was expressed in mm^3 using the formula: V=0.5 a×b^2 where a and b are the long and short diameters of the tumor, respectively.\n(§7) 8.2 T/C, percent value, T and C were the mean volume of the treated and control groups, respectively, on a given day.\nas §3"}, "A431 xenograft": {"system": "A431 xenograft", "assay": "A431 basal cell carcinoma xenograft tumor model, inoculated subcutaneously", "format": "in vivo, BALB/c nude mice", "method": "as §1, §2, §4, §5, §6, §7, §3"}, "[4]": {"system": "BXPC-3 human pancreatic carcinoma xenograft", "format": "in vivo, BALB/c nude mice", "conditions": "BXPC-3 xenograft", "method": "BXPC-3 tumor cells cultured in RMPI1640 medium supplemented with 10% heat inactivated fetal bovine serum, all cells used EDTA containing trypsin, passaged twice a week, incubated at 37° C. in an atmosphere of 5% CO2 in air and cultured.\n40 BALB/c nude mice, female, 6-8 weeks old, 18-22 g in body weight, were purchased from Shanghai Laboratory Animal Center (SLAC, Shanghai, China).\nEach mouse was inoculated subcutaneously at the right flank region with BXPC-3 tumor cells (5×10^7) in 0.1 ml of phosphate-buffered saline with matrigel via a 1 ml syringe for tumor development. The treatments were started when the mean tumor size reaches approximately 200 (150-250) mm^3 at 9 days after inoculation."}, "[5]": {"assay": "Pharmacokinetic study of jervine in mice", "format": "in vivo", "conditions": "CD-1 mice", "description": "Orally dosed: A total of 3 male experimental CD-1 mice, approximately 8 weeks of age at receipt was administered jervine via oral gavage at 10 mg/kg. Blood samples (300 μL) were collected via cardiac puncture predose and at 2 minute, 5 minute, 15 minute, 0.5 hour, 1 hour, 2 hour, 4 hour, 8 hour, 24 hours postdose. Plasma was made form the blood samples in order to measure the concentration of jervine."}, "[6]": {"assay": "Maximum tolerated dose of jervine on BALB/c nude mice", "format": "in vivo", "conditions": "14 days", "description": "Result indicates the maximum tolerated dose of jervine is higher than 80 mg/kg for BALB/c mice.\nStudy the maximum tolerated dose of jervine on BALB/c nude mice 9 BALB/c nude mice were divided equally into 3 groups. The mice were orally dosed at 50 mg/kg, 80 mg/kg and 150 mg/kg by groups. […] It was initialy determinded that the maximum tolerated dose is higher than 80 mg/kg for BALB/c nude mice."}, "[7]": {"conditions": "male, mouse, PO 10 mg/Kg, plasma"}}, "note": "Entries after “also recorded” stand apart in the source; their conditions may differ. Read-outs that look alike come from different tables or passages of the source.", "data": [{"compound": "CC1=C2C(=O)[C@H]3[C@@H](CC=C4C[C@@H](O)CC[C@@]43C)[C@@H]2CC[C@]12O[C@@H]1C[C@H](C)CN[C@H]1[C@H]2C", "note": "[jervine, Jervine]", "values": [{"measurement": "IC50", "setting": "[1]", "value": 50, "unit": "nM"}, {"measurement": "T/C value (tumor volume)", "setting": "[2]; 40 mg/kg p.o. QD for 21 days", "value": 0.79}, {"measurement": "T/C value (tumor volume)", "setting": "[2]; 60 mg/kg p.o. QD for 21 days", "value": 0.701}, {"measurement": "T/C value (tumor volume)", "setting": "[2]; 80 mg/kg p.o. QD for 21 days", "value": 0.594}, {"measurement": "side effects / weight loss of the mice", "setting": "[3]", "value": "no obvious side effects; also recorded: no significant of weight lose"}, {"measurement": "T/C value (tumor volume)", "setting": "A431 xenograft; 40 mg/kg p.o. QD for 21 days", "value": 0.52}, {"measurement": "T/C value (tumor volume)", "setting": "A431 xenograft; 60 mg/kg p.o. QD for 21 days", "value": 0.80}, {"measurement": "T/C value (tumor volume)", "setting": "A431 xenograft; 80 mg/kg p.o. QD for 21 days", "value": 0.82}, {"measurement": "T/C value (tumor volume)", "setting": "[4]; 20 mg/kg iv QD × 21 days", "value": 25.8, "unit": "%"}, {"measurement": "T/C value (tumor volume)", "setting": "[4]; 40 mg/kg iv QD × 21 days", "value": 59.1, "unit": "%"}, {"measurement": "T/C value (tumor volume)", "setting": "[4]; 80 mg/kg iv QD × 21 days", "value": 54.2, "unit": "%"}, {"measurement": "F (bioavailability)", "setting": "[5]; PO 10 mg/Kg, 10 mg/kg", "value": 41.2, "unit": "%"}, {"measurement": "bioavailability", "setting": "[5]; male, CD-1, mouse, plasma, po, 10 mg/kg, read-out: F (bioavailability)", "value": 41, "unit": "%"}, {"measurement": "AUC(0-inf)", "setting": "[5]; [7]", "value": 2260, "unit": "ng·h/mL"}, {"measurement": "AUC(0-t)", "setting": "[5]; [7]", "value": 1790, "unit": "ng·h/mL"}, {"measurement": "Cmax", "setting": "[5]; [7]", "value": 368, "unit": "ng/mL"}, {"measurement": "half-life", "setting": "[5]; male, mouse, PO 10 mg/Kg, plasma, read-out: T½ (converted)", "value": 11.8, "unit": "h"}, {"measurement": "animal deaths", "setting": "[6]; 50 mg/kg oral", "value": "no animal dead"}, {"measurement": "weight loss", "setting": "[6]; 80 mg/kg oral gavage", "value": "no significant weight loss"}, {"measurement": "animal deaths", "setting": "[6]; 80 mg/kg oral", "value": "no animal die; also recorded: no animal dead"}, {"measurement": "animal deaths", "setting": "[6]; 150 mg/kg oral, 3 mice per group", "value": "Two"}, {"measurement": "MTD", "setting": "[6]; mouse, in vivo, oral, BALB/c nude mice", "value": "> 80", "unit": "mg/kg"}]}]}
